Patent US8383094B2, “Hepatitis C virus inhibitors” (Bristol-Myers Squibb Company, priority 2008, dated 2013)
Like-named read-outs stand apart in the source and are kept apart here.

System: HCV 1b genotype
Assay: HCV Replicon assay (HCV-neo replicon cells, wild-type)
Type: cell-based
Conditions: HCV 1b genotype replicon, read-out: 1b EC50 (in μM or range)
[1] = Hepatitis C virus, range class A-D

Row | SMILES | EC50 [1] [nM] | further results
1 | O=C(Nc1ccc(C#Cc2ccc(NC(=O)[C@@H]3CCCN3C(=O)[C@H](O)c3ccccc3)cc2)cc1)[C@@H]1CCCN1C(=O)[C@H](O)c1ccccc1 [Example D43, (2S,2′S)-N,N′-(1,2-ethynediyldi-4,1-phenylene)bis(1-((2R)-2-hydroxy-2-phenylacetyl)-2-pyrrolidinecarboxamide)] | < 4.57 | 
2 | CN(C)[C@H](C(=O)N1CCC[C@H]1C(=O)Nc1ccc(C#Cc2ccc(NC(=O)[C@@H]3CCCN3C(=O)[C@H](c3ccccc3)N(C)C)cc2)cc1)c1ccccc1 [VN22, (2S,2′S)-N,N′-(1,2-ethynediyldi-4,1-phenylene)bis(1-((2S)-2-(dimethylamino)-2-phenylacetyl)-2-pyrrolidinecarboxamide)] | < 4.57 | 
3 | O=C1CN(C(C(=O)N2CCC[C@H]2C(=O)Nc2ccc(C#Cc3ccc(NC(=O)[C@@H]4CCCN4C(=O)C(c4ccccc4)N4CCNC(=O)C4)cc3)cc2)c2ccccc2)CCN1 (single isomer, unassigned) [VN33] |  | EC50 (range class A-D): < 4.57 nM
4 | O=C(Nc1ccc(C#Cc2ccc(NC(=O)[C@@H]3CCCN3C(=O)C(c3ccccc3)N3CC[C@H](O)C3)cc2)cc1)[C@@H]1CCCN1C(=O)C(c1ccccc1)N1CC[C@H](O)C1 (stereo partly drawn) [VN50, (2S,2′S)-N,N′-(1,2-ethynediyldi-4,1-phenylene)bis(1-(((3S)-3-hydroxy-1-pyrrolidinyl)(phenyl)acetyl)-2-pyrrolidinecarboxamide)] |  | EC50 (Hepatitis C virus): 0.5 nM
5 | C[C@@H](C(=O)N1CCC[C@H]1C(=O)Nc1ccc(C#Cc2ccc(NC(=O)[C@@H]3CCCN3C(=O)[C@H](C)c3ccccc3)cn2)nc1)c1ccccc1 [Example D54, (2S,2′S)-N,N′-(1,2-ethynediyldi-2,5-pyridinediyl)bis(1-((2R)-2-phenylpropanoyl)-2-pyrrolidinecarboxamide)] | < 4.57 | 
6 | O=C(Nc1ccc(C#Cc2ccc(NC(=O)[C@@H]3CCCN3C(=O)C(c3ccccc3)N3CCC(O)CC3)cc2)cc1)[C@@H]1CCCN1C(=O)C(c1ccccc1)N1CCC(O)CC1 (stereo partly drawn) [VN20, (2S,2′S)-N,N′-(1,2-ethynediyldi-4,1-phenylene)bis(1-((4-hydroxy-1-piperidinyl)(phenyl)acetyl)-2-pyrrolidinecarboxamide)] | 4.57 to 99 | 
7 | O=C(Nc1ccc(C#Cc2ccc(NC(=O)[C@@H]3CCCN3C(=O)[C@H]3CCCO3)cc2)cc1)[C@@H]1CCCN1C(=O)[C@H]1CCCO1 [Example D26, (2S,2′S)-N,N′-(1,2-ethynediyldi-4,1-phenylene)bis(1-((2R)-tetrahydro-2-furanylcarbonyl)-2-pyrrolidinecarboxamide)] | 4.57 to 99 | 
8 | CNC(C(=O)N1CCC[C@H]1C(=O)Nc1ccc(C#Cc2ccc(NC(=O)[C@@H]3CCCN3C(=O)C(NC)c3ccccc3)cc2)cc1)c1ccccc1 (stereo partly drawn) [VN30, (2S,2′S)-N,N′-(1,2-ethynediyldi-4,1-phenylene)bis(1-((methylamino)(phenyl)acetyl)-2-pyrrolidinecarboxamide)] | < 4.57 | 
9 | CN(C)C(C)(C(=O)N1CCC[C@H]1C(=O)Nc1ccc(C#Cc2ccc(NC(=O)[C@@H]3CCCN3C(=O)C(C)(c3ccccc3)N(C)C)cc2)cc1)c1ccccc1 (stereo partly drawn) [VN38, (2S,2′S)-N,N′-(1,2-ethynediyldi-4,1-phenylene)bis(1-(2-(dimethylamino)-2-phenylpropanoyl)-2-pyrrolidinecarboxamide)] |  | EC50 (range class A-D): < 4.57 nM
10 | C[C@@](O)(C(=O)N1CCC[C@H]1C(=O)Nc1ccc(C#Cc2ccc(NC(=O)[C@@H]3CCCN3C(=O)[C@@](C)(O)c3ccccc3)nc2)cn1)c1ccccc1 [Example D51, (2S,2′S)-N,N′-(1,2-ethynediyldi-5,2-pyridinediyl)bis(1-((2S)-2-hydroxy-2-phenylpropanoyl)-2-pyrrolidinecarboxamide)] | < 4.57 | 
11 | O=C(Nc1ccc(C#Cc2ccc(NC(=O)[C@@H]3CCCN3C(=O)[C@H](O)c3ccccc3)cc2)cc1)[C@@H]1CCCN1C(=O)c1nc(Cl)cc2ccccc12 [Example D44, (2S)-1-((3-Chloro-1-isoquinolinyl)carbonyl)-N-(4-((4-((((2S)-1-((2R)-2-hydroxy-2-phenylacetyl)-2-pyrrolidinyl)carbonyl)amino)phenyl)ethynyl)phenyl)-2-pyrrolidinecarboxamide] | < 4.57 | 
12 | O=C(Nc1ccc(C#Cc2ccc(NC(=O)[C@@H]3CCCN3C(=O)[C@@H](O)c3ccccc3)cc2)cc1)[C@@H]1CCCN1C(=O)[C@@H](O)c1ccccc1 [Example D41, (2S,2′S)-N,N′-(1,2-ethynediyldi-4,1-phenylene)bis(1-((2S)-2-hydroxy-2-phenylacetyl)-2-pyrrolidinecarboxamide)] | < 4.57 | 
13 | C[C@](O)(C(=O)N1CCC[C@H]1C(=O)Nc1ccc(C#Cc2ccc(NC(=O)[C@@H]3CCCN3C(=O)[C@](C)(O)c3ccccc3)cc2)cc1)c1ccccc1 [VN2, (2S,2′S)-N,N′-(1,2-ethynediyldi-4,1-phenylene)bis(1-((2R)-2-hydroxy-2-phenylpropanoyl)-2-pyrrolidinecarboxamide)] | < 4.57 | 
14 | O=C(Nc1ccc(C#Cc2ccc(NC(=O)C3CCN(C(=O)OCc4ccccc4)C3)cc2)cc1)C1CCN(C(=O)OCc2ccccc2)C1 (stereo not drawn) [Example D5, Dibenzyl3,3′-(1,2-ethynediylbis(4,1-phenylenecarbamoyl))di(1-pyrrolidinecarboxylate)] | 1000 to 10000 | 
15 | CC(=O)N1CCC[C@H]1C(=O)Nc1ccc(C#Cc2ccc(NC(=O)[C@@H]3CCCN3C(=O)c3cccc4cccnc34)nc2)cc1 [Example D58, (2S)-1-Acetyl-N-(4-((6-((((2S)-1-(8-quinolinylcarbonyl)-2-pyrrolidinyl)carbonyl)amino)-3-pyridinyl)ethynyl)phenyl)-2-pyrrolidinecarboxamide] |  | EC50 (Hepatitis C virus): > 10000 nM
16 | COC(=O)N[C@@H](C(=O)N1CCC[C@H]1C(=O)Nc1ccc(C#Cc2ccc(NC(=O)[C@@H]3CCCN3C(=O)[C@H](NC(=O)OC)c3ccccc3)cc2)cc1)c1ccccc1 [VN55, Dimethyl (1,2-ethynediylbis(4,1-phenylenecarbamoyl(2S)-2,1-pyrrolidinediyl((1R)-2-oxo-1-phenyl-2,1-ethanediyl)))biscarbamate] |  | EC50: 0.013 nM
17 | O=C(Nc1ccc(C#Cc2ccc(NC(=O)[C@@H]3CCCN3C(=O)C3(c4ccccc4)CC3)cc2)cc1)[C@@H]1CCCN1C(=O)C1(c2ccccc2)CC1 [VN4, (2S,2′S)-N,N′-(1,2-ethynediyldi-4,1-phenylene)bis(1-((1-phenylcyclopropyl)carbonyl)-2-pyrrolidinecarboxamide)] | < 4.57 | 
18 | CN1CCc2ccccc2[C@@H]1C(=O)N1CCC[C@H]1C(=O)Nc1ccc(C#Cc2ccc(NC(=O)[C@@H]3CCCN3C(=O)[C@H]3c4ccccc4CCN3C)cc2)cc1 [VN32, (R,2S,2′S)-N,N′-(4,4′-(ethyne-1,2-diyl)bis(4,1-phenylene))bis(1-((R)-2-methyl-1,2,3,4-tetrahydroisoquinoline-1-carbonyl)pyrrolidine-2-carboxamide)] | 100 to 999 | 
19 | CC(=O)N[C@H](C)C(=O)N1CCC[C@H]1C(=O)Nc1ccc(C#Cc2ccc(NC(=O)[C@@H]3CCCN3C(=O)[C@@H](C)NC(C)=O)cc2)cc1 [VN14, (2S,2′S)-N,N′-(1,2-ethynediyldi-4,1-phenylene)bis(1-((2R)-2-acetamidopropanoyl)-2-pyrrolidinecarboxamide)] | 4.57 to 99 | 
20 | O=C(Nc1ccc(C#Cc2ccc(NC(=O)[C@@H]3CCCN3C(=O)[C@@H](O)c3ccccc3)cc2)cc1)[C@@H]1CCCN1C(=O)c1nc(Cl)cc2ccccc12 [Example D42, (2S)-1-((3-Chloro-1-isoquinolinyl)carbonyl)-N-(4-((4-((((2S)-1-((2S)-2-hydroxy-2-phenylacetyl)-2-pyrrolidinyl)carbonyl)amino)phenyl)ethynyl)phenyl)-2-pyrrolidinecarboxamide] |  | EC50 (Hepatitis C virus): 17 nM
21 | CC(C)(C)O[C@@H]1C[C@@H](C(=O)Nc2ccc(C#Cc3ccc(NC(=O)[C@@H]4C[C@@H](OC(C)(C)C)CN4C(=O)OCc4ccccc4)cc3)cc2)N(C(=O)OCc2ccccc2)C1 [Example D8, Dibenzyl (2S,4R,2′S,4′R)-2,2′-(1,2-ethynediylbis(4,1-phenylenecarbamoyl))bis(4-tert-butoxy-1-pyrrolidinecarboxylate)] | 1000 to 10000 | 
22 | CN(C)C1(C(=O)N2CCC[C@H]2C(=O)Nc2ccc(C#Cc3ccc(NC(=O)[C@@H]4CCCN4C(=O)C4(N(C)C)Cc5ccccc5C4)cc3)cc2)Cc2ccccc2C1 [VN16, (2S,2′S)-N,N′-(1,2-ethynediyldi-4,1-phenylene)bis(1-((2-(dimethylamino)-2,3-dihydro-1H-inden-2-yl)carbonyl)-2-pyrrolidinecarboxamide)] | 4.57 to 99 | 
23 | O=C(Nc1ccc(C#Cc2ccc(NC(=O)[C@@H]3CCCN3C(=O)Cc3cccnc3)cc2)cc1)[C@@H]1CCCN1C(=O)Cc1cccnc1 [Example D39, (2S,2′S)-N,N′-(1,2-ethynediyldi-4,1-phenylene)bis(1-(3-pyridinylacetyl)-2-pyrrolidinecarboxamide)] | < 4.57 | 
24 | CC(C)(C)OC(=O)Nc1ccc(C#Cc2ccc(NC(=O)[C@@H]3CCCN3C(=O)[C@H](O)c3ccccc3)cc2)cc1 [Example D60.1, tert-Butyl 4-((4-((S)-1-((R)-2-hydroxy-2-phenylacetyl)pyrrolidine-2-carboxamido)phenyl)ethynyl)phenylcarbamate] | 100 to 999 | 
25 | CN1Cc2ccccc2C1C(=O)N1CCC[C@H]1C(=O)Nc1ccc(C#Cc2ccc(NC(=O)[C@@H]3CCCN3C(=O)C3c4ccccc4CN3C)cc2)cc1 (stereo partly drawn) [VN39, (2S,2′S)-N,N′-(1,2-ethynediyldi-4,1-phenylene)bis(1-((2-methyl-2,3-dihydro-1H-isoindol-1-yl)carbonyl)-2-pyrrolidinecarboxamide)] |  | EC50 (range class A-D): 100 to 999 nM
26 | CC(=O)N(C)C(C(=O)N1CCC[C@H]1C(=O)Nc1ccc(C#Cc2ccc(NC(=O)[C@@H]3CCCN3C(=O)C(c3ccccc3)N(C)C(C)=O)cc2)cc1)c1ccccc1 (single isomer, unassigned) [VN35] | 100 to 999 | 
27 | CC(=O)N1CCC[C@H]1C(=O)Nc1ccc(C#Cc2ccc(NC(=O)[C@@H]3C[C@@H](OC(C)(C)C)CN3C(=O)OCc3ccccc3)cc2)cc1 [Example D7, Benzyl (2S,4R)-2-((4-((4-((((2S)-1-acetyl-2-pyrrolidinyl)carbonyl)amino)phenyl)ethynyl)phenyl)carbamoyl)-4-tert-butoxy-1-pyrrolidinecarboxylate] | 1000 to 10000 | 
